From ChEMBL document CHEMBL6096649, “Enantiomeric C-6 fluorinated swainsonine derivatives as highly selective and potent inhibitors of α-mannosidase and α-l-rhamnosidase: Design, synthesis and structure-activity relationship study” (Eur J Med Chem, 2025)
pIC50, pKi: −log10 of the molar value. Each block holds one compound with its values, some of them ahead of it. Calls of active or inactive are those of the source. No cut-off for these calls is given here.

Experiments:
Penicillium decumbens = assay: Inhibition of Penicillium decumbens alpha-L-rhamnosidase using p-nitrophenyl glycoside as substrate assessed as release of p-nitrophenol at 1000 uM by spectrometric analysis relative to control
Bos taurus [1] = species on record: Bos taurus; assay: Inhibition of bovine liver beta-galactosidase using p-nitrophenyl glycoside as substrate assessed as release of p-nitrophenol at 1000 uM by spectrometric analysis relative to control
Aspergillus niger = assay: Inhibition of Aspergillus niger amyloglucosidase using p-nitrophenyl glycoside as substrate assessed as release of p-nitrophenol at 1000 uM by spectrometric analysis relative to control
Homo sapiens [2] = species on record: Homo sapiens; assay: Inhibition of human lysosome beta-glucosidase using p-nitrophenyl glycoside as substrate assessed as release of p-nitrophenol at 1000 uM by spectrometric analysis relative to control
Escherichia coli = assay: Inhibition of Escherichia coli beta-glucuronidase using p-nitrophenyl glycoside as substrate assessed as release of p-nitrophenol at 1000 uM by spectrometric analysis relative to control
Rattus norvegicus = species on record: Rattus norvegicus; assay: Inhibition of rat intestinal Alpha-glucosidase using p-nitrophenyl glycoside as substrate assessed as p-nitrophenol release at 1000 uM by spectrometric analysis relative to control
Helix pomatia = assay: Inhibition of snail beta-mannosidase using p-nitrophenyl glycoside as substrate assessed as release of p-nitrophenol at 1000 uM by spectrometric analysis relative to control
Bos taurus [3] = species on record: Bos taurus; assay: Inhibition of bovine liver beta-glucuronidase using p-nitrophenyl glycoside as substrate assessed as release of p-nitrophenol at 1000 uM by spectrometric analysis relative to control
Oryza sativa = assay: Inhibition of rice Alpha-glucosidase using p-nitrophenyl glycoside as substrate assessed as p-nitrophenol release at 1000 uM by spectrometric analysis relative to control
[4] = target: T1, Alpha-mannosidase (Canavalia ensiformis) (UniProt C0HJB3); assay: Inhibition of jack bean alpha-mannosidase using p-nitrophenyl glycoside as substrate assessed as release of p-nitrophenol at 1000 uM by spectrometric analysis relative to control
T1 sequence (whole entry): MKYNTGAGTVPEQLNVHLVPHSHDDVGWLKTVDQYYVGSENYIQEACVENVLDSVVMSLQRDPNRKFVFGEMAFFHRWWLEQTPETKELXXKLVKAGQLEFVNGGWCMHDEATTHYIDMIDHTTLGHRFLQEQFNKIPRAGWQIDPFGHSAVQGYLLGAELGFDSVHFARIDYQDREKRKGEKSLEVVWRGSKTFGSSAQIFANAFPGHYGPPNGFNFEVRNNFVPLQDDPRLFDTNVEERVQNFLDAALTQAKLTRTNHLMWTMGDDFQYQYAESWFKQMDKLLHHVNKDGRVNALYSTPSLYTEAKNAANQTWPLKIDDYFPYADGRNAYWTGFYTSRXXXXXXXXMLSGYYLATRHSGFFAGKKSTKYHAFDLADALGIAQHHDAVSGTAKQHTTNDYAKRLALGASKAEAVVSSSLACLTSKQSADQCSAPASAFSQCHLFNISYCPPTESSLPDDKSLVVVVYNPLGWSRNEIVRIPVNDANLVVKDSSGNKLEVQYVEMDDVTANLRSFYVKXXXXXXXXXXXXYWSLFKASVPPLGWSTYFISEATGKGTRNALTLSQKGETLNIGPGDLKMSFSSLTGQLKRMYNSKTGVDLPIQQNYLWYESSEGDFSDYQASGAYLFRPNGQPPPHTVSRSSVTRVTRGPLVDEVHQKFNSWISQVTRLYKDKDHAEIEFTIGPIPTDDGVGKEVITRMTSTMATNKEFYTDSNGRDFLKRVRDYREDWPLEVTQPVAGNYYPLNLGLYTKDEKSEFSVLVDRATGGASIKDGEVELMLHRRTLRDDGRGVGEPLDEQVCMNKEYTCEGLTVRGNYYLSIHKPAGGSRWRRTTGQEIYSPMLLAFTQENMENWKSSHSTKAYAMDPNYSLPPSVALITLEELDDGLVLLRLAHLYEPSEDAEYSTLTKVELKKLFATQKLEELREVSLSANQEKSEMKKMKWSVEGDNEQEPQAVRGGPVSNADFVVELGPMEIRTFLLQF

[5] = Inhibition of Penicillium decumbens alpha-L-rhamnosidase using p-nitrophenyl glycoside as substrate assessed as release of p-nitrophenol by spectrometric analysis
[6] = target: Alpha-glucosidase (Saccharomyces cerevisiae S288c) (UniProt P53341+P38158+P07265); assay: Inhibition of yeast Alpha-glucosidase using p-nitrophenyl glycoside as substrate assessed as p-nitrophenol release at 1000 uM by spectrometric analysis relative to control; type: protein assay
[7] = target: Alpha-galactosidase (Coffea arabica) (UniProt Q42656); assay: Inhibition of coffee bean alpha-galactosidase using p-nitrophenyl glycoside as substrate assessed as release of p-nitrophenol at 1000 uM by spectrometric analysis relative to control
Chain of Alpha-galactosidase (Coffea arabica) (Q42656 16-378 limits assumed): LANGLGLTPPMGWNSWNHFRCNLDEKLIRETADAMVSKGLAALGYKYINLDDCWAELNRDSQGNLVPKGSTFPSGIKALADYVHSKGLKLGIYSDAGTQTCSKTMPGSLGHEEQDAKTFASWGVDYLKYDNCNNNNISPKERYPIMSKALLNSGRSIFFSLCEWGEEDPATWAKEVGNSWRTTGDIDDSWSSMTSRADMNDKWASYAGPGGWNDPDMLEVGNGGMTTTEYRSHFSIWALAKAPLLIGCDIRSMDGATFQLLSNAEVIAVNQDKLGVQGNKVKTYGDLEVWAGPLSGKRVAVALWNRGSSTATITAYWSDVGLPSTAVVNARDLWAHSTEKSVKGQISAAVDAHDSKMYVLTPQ

[8] = target: Alpha glucosidase (Homo sapiens) (UniProt O43451+P10253+P14410+Q2M2H8); assay: Inhibition of human Alpha-glucosidase using p-nitrophenyl glycoside as substrate assessed as p-nitrophenol release at 1000 uM by spectrometric analysis relative to control; type: protein assay
Prunus dulcis = assay: Inhibition of almond Beta-glucosidase using p-nitrophenyl glycoside as substrate assessed as release of p-nitrophenol at 1000 uM by spectrometric analysis relative to control
Bos taurus [9] = species on record: Bos taurus; assay: Inhibition of bovine liver beta-glucosidase using p-nitrophenyl glycoside as substrate assessed as release of p-nitrophenol at 1000 uM by spectrometric analysis relative to control
Alpha-mannosidase [10] = target: T2, Alpha-mannosidase (Canavalia ensiformis, UniProt C0HJB3); assay: Inhibition of jack bean alpha-mannosidase using p-nitrophenyl glycoside as substrate assessed as release of p-nitrophenol by spectrometric analysis
T2 sequence (C0HJB3 whole entry): T1 sequence (whole entry)

Alpha-mannosidase [11] = target: T2, Alpha-mannosidase; assay: Inhibition of jack bean Alpha-mannosidase using p-nitrophenyl glycoside as substrate
[12] = Inhibition of human liver Alpha-mannosidase
786-0 = assay: Cytotoxicity activity against human 786-0 cells incubated for 48 hrs by CCK-8 assay; type: functional, cell-based; details: 786-0, 48 h
CAKI-1 = assay: Cytotoxicity activity against human CAKI-1 cells incubated for 48 hrs by CCK-8 assay; type: functional, cell-based; details: CAKI-1, 48 h
HepG2 = assay: Cytotoxicity activity against human HepG2 cells incubated for 48 hrs by CCK-8 assay; type: functional, cell-based; details: HepG2, 48 h
Sus scrofa = species on record: Sus scrofa; assay: Inhibition of porcine kidney Alpha alpha-trehalase using p-nitrophenyl glycoside as substrate assessed as release of p-nitrophenol at 1000 uM by spectrometric analysis relative to control
Homo sapiens [13] = species on record: Homo sapiens; assay: Inhibition of human liver Alpha-mannosidase relative to control

Compound: O[C@@H]1[C@@H]2[C@@H](O)CCCN2C[C@@H]1O
inhibition (Penicillium decumbens): 0.26%
inhibition (Bos taurus [1]): 48.3%
inhibition (Aspergillus niger): 17.7%
inhibition (Homo sapiens [2]): 4.8%
inhibition (Escherichia coli): 11.3%
inhibition (Rattus norvegicus): 26.5%
inhibition (Helix pomatia): 0%
inhibition (Bos taurus [3]): 0%
inhibition (Oryza sativa): 0%
inhibition [4]: 7.2%
pIC50 [5]: 6.89
inhibition [6]: 0%
inhibition [7]: 0%
inhibition [8]: 3.4%
inhibition (Prunus dulcis): 7.4%
inhibition (Bos taurus [9]): 33%

Compound: O[C@H]1[C@H]2[C@H](O)C[C@H](CCOCc3ccccc3)CN2C[C@H]1O
pIC50 (Alpha-mannosidase [10]): 3.64

Compound: C[C@@H]1C[C@H](O)[C@H]2[C@@H](O)[C@@H](O)CN2C1
pIC50 [5]: 7.47

Compound: O=C(C[C@H]1CC[C@@H](O)[C@@H]2[C@H](O)[C@H](O)CN12)c1ccccc1
pIC50 (Alpha-mannosidase [10]): 6.29

pIC50 (Alpha-mannosidase [10]): 6.38
Compound: CC(C)(C)c1ccc(CC[C@H]2CC[C@@H](O)[C@@H]3[C@H](O)[C@H](O)CN23)cc1

pKi (Alpha-mannosidase [11]): 8.22
pKi [12]: 5.22
Compound: NCC/N=C1/N[C@H](CO)[C@@H](O)[C@@H](O)[C@@H]1O

Compound: O[C@H]1[C@H]2[C@H](O)CC(F)(F)CN2C[C@H]1O
inhibition (Penicillium decumbens): 20.4%
inhibition (Bos taurus [1]): 13.3%
pIC50 (786-0): < 3.70
inhibition (Aspergillus niger): 2.7%
pIC50 (CAKI-1): < 3.70
inhibition (Homo sapiens [2]): 0%
inhibition (Escherichia coli): 0%
inhibition (Rattus norvegicus): 11.6%
inhibition (Helix pomatia): 40%
inhibition (Bos taurus [3]): 16.7%
inhibition [4]: 0.44%
pIC50 (HepG2): < 3.70
inhibition [6]: 0%
inhibition [7]: 0.6%
inhibition [8]: 8.9%
inhibition (Sus scrofa): 0%
inhibition (Prunus dulcis): 3.2%
inhibition (Bos taurus [9]): 23.7%

Compound: C[C@@H]1[C@H](O)[C@H]2[C@@H](O)[C@@H](O)CN2C[C@@]1(C)O
pIC50 [5]: 4.67

pIC50 (Alpha-mannosidase [10]): 5.43
Compound: CC(C)(C)c1ccc(CC[C@@H]2CC[C@@H](O)[C@@H]3[C@H](O)[C@H](O)CN23)cc1

Compound: O[C@@H]1[C@@H]2[C@@H](O)[C@H](O)[C@H](O)CN2C[C@@H]1O
pIC50 [5]: 3.28

inhibition (Homo sapiens [13]): inactive
Compound: OC[C@H]1O[C@H](O[C@H]2[C@H]3[C@H](O)CCCN3C[C@H]2O)[C@H](O)[C@@H](O)[C@@H]1O

Compound: CC(C)(C)c1ccc(C(=O)C[C@@H]2CC[C@@H](O)[C@@H]3[C@H](O)[C@H](O)CN23)cc1
pIC50 (Alpha-mannosidase [10]): 5.60

Compound: O[C@H]1[C@H]2[C@H](O)C[C@H](F)CN2C[C@H]1O
inhibition (Penicillium decumbens): 14.4%
inhibition (Bos taurus [1]): 0%
pIC50 (786-0): < 3.70
inhibition (Aspergillus niger): 6.4%
pIC50 (CAKI-1): < 3.70
inhibition (Homo sapiens [2]): 6%
inhibition (Escherichia coli): 11.3%
inhibition (Rattus norvegicus): 19.1%
inhibition (Helix pomatia): 5%
inhibition (Bos taurus [3]): 6.8%
inhibition [4]: 0.78%
pIC50 (HepG2): < 3.70
inhibition [6]: 1.7%
inhibition [7]: 0%
inhibition [8]: 6.6%
inhibition (Sus scrofa): 4.1%
inhibition (Prunus dulcis): 2.1%
inhibition (Bos taurus [9]): 2.6%

Compound: CCCC[C@H]1CCN2C[C@@H](O)[C@@H](O)[C@H]2[C@@H]1O
inhibition (Homo sapiens [13]): inactive

Compound: O[C@H]1[C@H]2[C@H](O)C[C@@H](F)CN2C[C@H]1O
inhibition (Penicillium decumbens): 8.3%
inhibition (Bos taurus [1]): 0.8%
pIC50 (786-0): < 3.70
inhibition (Aspergillus niger): 11.8%
pIC50 (CAKI-1): < 3.70
inhibition (Homo sapiens [2]): 0.4%
inhibition (Escherichia coli): 0%
inhibition (Rattus norvegicus): 22.8%
inhibition (Helix pomatia): 0%
inhibition (Bos taurus [3]): 2.6%
inhibition [4]: 0.5%
pIC50 (HepG2): < 3.70
inhibition [6]: 2.2%
inhibition [7]: 0%
inhibition [8]: 5.6%
inhibition (Sus scrofa): 2.5%
inhibition (Prunus dulcis): 0.5%
inhibition (Bos taurus [9]): 5.1%
